The values below come from patent US20140023611A1 (priority 2010, published 2014).

In one assay the target is T1, rat NaP2b (SLC34A2) (Rattus norvegicus, UniProt Q9JJ09).
T1 construct: host or cells: HEK293
T1 sequence (Q9JJ09 1-695): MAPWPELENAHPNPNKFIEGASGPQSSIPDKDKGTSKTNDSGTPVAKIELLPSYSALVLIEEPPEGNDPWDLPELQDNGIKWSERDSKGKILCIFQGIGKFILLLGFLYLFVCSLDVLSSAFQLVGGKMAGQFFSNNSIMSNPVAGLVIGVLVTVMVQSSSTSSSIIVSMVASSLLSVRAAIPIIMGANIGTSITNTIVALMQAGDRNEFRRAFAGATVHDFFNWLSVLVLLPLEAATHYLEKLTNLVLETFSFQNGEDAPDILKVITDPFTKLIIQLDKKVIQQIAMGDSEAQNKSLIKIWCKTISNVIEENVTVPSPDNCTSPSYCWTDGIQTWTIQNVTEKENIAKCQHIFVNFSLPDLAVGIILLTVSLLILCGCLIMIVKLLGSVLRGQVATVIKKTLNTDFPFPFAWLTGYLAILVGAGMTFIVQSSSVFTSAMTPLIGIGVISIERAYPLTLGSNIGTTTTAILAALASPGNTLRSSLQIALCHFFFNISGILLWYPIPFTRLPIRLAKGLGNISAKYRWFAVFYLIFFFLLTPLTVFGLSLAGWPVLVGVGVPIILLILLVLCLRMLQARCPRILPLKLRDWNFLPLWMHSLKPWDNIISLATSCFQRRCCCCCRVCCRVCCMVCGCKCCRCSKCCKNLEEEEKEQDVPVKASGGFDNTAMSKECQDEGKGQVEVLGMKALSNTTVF
Put plainly: Inhibition of NaP2b-mediated Pi (33P) uptake in transfected HEK293 cells, rat NaP2b. Particulars: 33P Pi uptake, 0.1 mM phosphate, value given as pIC50 range. In kind it is cell-based. The essentials:
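The cells transiently expressed NaP2b after Lipofectamine transfection. Each compound was run in duplicate over twelve concentrations, 0.1 nM–30 uM.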

In another assay the target is T2, human NaP2b (SLC34A2) (Homo sapiens, UniProt O95436).
T2 construct: host or cells: HEK293
T2 sequence (O95436 1-690): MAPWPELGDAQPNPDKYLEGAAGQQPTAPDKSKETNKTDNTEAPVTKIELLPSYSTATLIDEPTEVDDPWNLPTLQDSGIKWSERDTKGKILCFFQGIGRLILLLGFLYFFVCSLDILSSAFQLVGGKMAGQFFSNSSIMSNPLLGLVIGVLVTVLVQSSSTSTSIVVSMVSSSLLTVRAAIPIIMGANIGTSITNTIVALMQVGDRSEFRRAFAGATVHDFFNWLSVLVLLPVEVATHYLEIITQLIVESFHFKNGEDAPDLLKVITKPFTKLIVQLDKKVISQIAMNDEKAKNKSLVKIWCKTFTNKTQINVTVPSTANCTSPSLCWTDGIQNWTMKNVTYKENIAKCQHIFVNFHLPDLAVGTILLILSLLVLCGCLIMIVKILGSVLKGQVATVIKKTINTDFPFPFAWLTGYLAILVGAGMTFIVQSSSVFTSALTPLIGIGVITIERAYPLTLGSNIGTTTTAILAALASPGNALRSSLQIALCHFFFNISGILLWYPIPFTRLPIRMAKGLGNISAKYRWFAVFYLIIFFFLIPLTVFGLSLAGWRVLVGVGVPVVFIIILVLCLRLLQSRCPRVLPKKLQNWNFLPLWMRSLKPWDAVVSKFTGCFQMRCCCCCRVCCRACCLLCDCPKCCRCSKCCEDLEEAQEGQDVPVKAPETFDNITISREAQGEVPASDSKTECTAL
Put plainly: Inhibition of NaP2b-mediated Pi (33P) uptake in transfected HEK293 cells, human NaP2b. In kind it is cell-based. Particulars: read-out: pIC50 range for human NaP2b (converted). In outline:
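Uptake of 33P-phosphate (100 uM KH2PO4 carrier, sodium vs choline buffer, pH 7.4) measured after 3-30 min at room temperature, with test compound at twelve concentrations from 0.1 nM to 30 uM in duplicate. Cells were HEK293 transfected with mutated human NaP2b (Thr insertion after 37, N39D) and treated with a PiT-silencing agent. pIC50 values from scintillation counts.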

Values joined by “and” are separate entries in the source; they are usually repeats but may differ in a detail not shown here. Equal values may be shown once. Some results are limits rather than exact numbers.

For `O=C(O)c1cccc(SCc2cccc(C(=O)Nc3ccc(N4CCCCC4)cc3-c3cc(C(=O)NCc4cccc(C(F)(F)F)c4)ccn3)c2)c1` [Example 8.1, 3-(3-(4-(piperidin-1-yl)-2-(4-(3-(trifluoromethyl)benzylcarbamoyl)pyridin-2-yl)phenylcarbamoyl)benzylthio)benzoic acid], the IC50 at rat NaP2b (SLC34A2) was 10000 to 31600 nM and < 1000 nM; at human NaP2b (SLC34A2), below 1000 nM.

For `CCN(CC)c1ccc(NC(=O)c2cccc(CSCCOCCOCCOCCOCCOCCOCCOCCOC)c2)c(-c2cc(C(=O)NCc3cccc(C(F)(F)F)c3)ccn2)c1` [Example 265, 2-(2-(3-(2,5,8,11,14,17,20,23-octaoxa-26-thiaheptacosan-27-yl)benzamido)-5-(diethylamino)phenyl)-N-(3-(trifluoromethyl)benzyl)isonicotinamide], the IC50 against rat NaP2b (SLC34A2) and at human NaP2b (SLC34A2) was below 1000 nM in each case.

For `CCN(CC)c1ccc(NC(=O)c2cccc(CSCCOCCOCCOCCOCCOCCOCCOCCOCCC(=O)O)c2)c(-c2cc(C(=O)N[C@H]3CCCc4ccccc43)ccn2)c1` [Example 161, (S)-1-(3-(4-(diethylamino)-2-(4-(1,2,3,4-tetrahydronaphthalen-1-ylcarbamoyl)pyridin-2-yl)phenylcarbamoyl)phenyl)-5,8,11,14,17,20,23,26-octaoxa-2-thianonacosan-29-oic acid], the IC50 against rat NaP2b (SLC34A2) and on human NaP2b (SLC34A2) was 1000 to 7940 nM each time.

Consider `CCN(CC)c1ccc(NC(=O)c2cccc(CCCOCCOCCOCCOCCOCCOCCOCCOCCOCCC(=O)O)c2)c(-c2cc(C(=O)NCc3cccc(C(F)(F)F)c3)ccn2)c1` [Example 298, 31-(3-(4-(diethylamino)-2-(4-(3-(trifluoromethyl)benzylcarbamoyl)pyridin-2-yl)phenylcarbamoyl)phenyl)-4,7,10,13,16,19,22,25,28-nonaoxahentriacontan-1-oic acid], for which the IC50 on rat NaP2b (SLC34A2) and at human NaP2b (SLC34A2) was 1000 to 7940 nM each time.

For `CCN(CC)c1ccc(NC(=O)c2cccc(CCCOCCOCCOCCOCCOCCOCCC(=O)O)c2)c(-c2cc(C(=O)NCc3cccc(C(F)(F)F)c3)ccn2)c1` [Example 299, 22-(3-(4-(diethylamino)-2-(4-(3-(trifluoromethyl)benzylcarbamoyl)pyridin-2-yl)phenylcarbamoyl)phenyl)-4,7,10,13,16,19-hexaoxadocosan-1-oic acid], the figures for the IC50 against rat NaP2b (SLC34A2) and at human NaP2b (SLC34A2) were 1000 to 7940 nM and below 1000 nM, respectively.

Consider `O=C(O)CCOCCOCCOCCOCCSCc1cccc(C(=O)Nc2ccc(N3CCCCC3)cc2-c2cc(C(=O)N[C@H]3CCCc4ccccc43)ccn2)c1` [Example 142, 1-(3-{[4-(piperidin-1-yl)-2-(4-{[(1S)-1,2,3,4-tetrahydronaphthalen-1-yl]carbamoyl}pyridin-2-yl)phenyl]carbamoyl}phenyl)-5,8,11,14-tetraoxa-2-thiaheptadecan-17-oic acid], for which the results for the IC50 at rat NaP2b (SLC34A2) and at human NaP2b (SLC34A2) were below 1000 nM and 1000 to 7940 nM, respectively.

`CCN(CC)c1ccc(NC(=O)c2cccc(CCCOCCOCCOCCOCCOCCOCCOCCOCCOC)c2)c(-c2cc(C(=O)N[C@H]3CCCc4ccccc43)ccn2)c1` [Example 261, (S)-2-(2-(3-(2,5,8,11,14,17,20,23,26-nonaoxanonacosan-29-yl)benzamido)-5-(diethylamino)phenyl)-N-(1,2,3,4-tetrahydronaphthalen-1-yl)isonicotinamide]: the IC50 against rat NaP2b (SLC34A2) and on human NaP2b (SLC34A2) was below 1000 nM throughout.
